The record followed here is PubChem BioAssay (NCI).

SMILES strings stand for the structures.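 Test compounds were applied to cells in 96-well plates for 48 hours at 5 doses. Here, GI50 denotes the concentration required for 50% inhibition of growth. At the TGI there is no net growth.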 A value given as a limit tells only on which side of the number the result lay.

Some test systems named below: A549 NSCLC; BT-549 breast; SK-MEL-2 melanoma; RXF 393 renal; SF-268 CNS; NCI-H460 lung; OVCAR-3 ovarian; HOP-92 NSCLC; SK-OV-3 ovarian; NCI/ADR-RES ovarian; SK-MEL-5 melanoma; HCC-2998 colon.
Common to all, as to assay: DTP human tumour cell line panel, 48 h

In general, TGI refers to the concentration at which net growth stops. With `COc1cccc2c1C(=O)c1c(O)c3c(c(O)c1C2=O)C[C@@](O)(/C(C)=N/NC(=O)c1ccccc1)C[C@@H]3OC1CC(N)C(O)C(C)O1` (stereo not given in full), the concentration for total growth inhibition (TGI) in the assay with A549 NSCLC amounted to 4.25 µM; with BT-549 breast it was 1.45 µM; with SK-MEL-2 melanoma it was 1.41 µM; with RXF 393 renal it was 1.28 µM; in the assay on SF-268 CNS, 3.35 µM; in the assay with NCI-H460 lung, 3.55 µM. For the same compound, the TGI in the assay on OVCAR-3 ovarian came to 4.55 µM; in the assay on HOP-92 NSCLC, 1.11 µM; in the assay on SK-OV-3 ovarian it was 4.56 µM; in the assay with NCI/ADR-RES ovarian, 76 µM; in the assay on SK-MEL-5 melanoma, 0.74 µM; in the assay on HCC-2998 colon, 2.02 µM.
`COc1ccc(CCCC(=O)O)c(C)c1`: the concentration for total growth inhibition (TGI) in the assay on A549 NSCLC, with BT-549 breast, in the assay with SK-MEL-2 melanoma, in the assay with RXF 393 renal, in the assay on SF-268 CNS and in the assay on NCI-H460 lung was over 100 µM each time. For the same compound, the TGI was 97.5 µM with OVCAR-3 ovarian, 90.8 µM in the assay with HOP-92 NSCLC, over 100 µM with NCI/ADR-RES ovarian and over 100 µM in the assay with SK-MEL-5 melanoma.
Regarding `Nc1nc(N)c2nc(-c3ccco3)cnc2n1`, the TGI in the assay with A549 NSCLC, in the assay on RXF 393 renal, with SF-268 CNS, in the assay on NCI-H460 lung, with OVCAR-3 ovarian and in the assay on HOP-92 NSCLC was over 100 µM in each case. Moreover, the TGI in the assay with SK-OV-3 ovarian, with SK-MEL-5 melanoma and with HCC-2998 colon was over 100 µM in each case.
For the compound `COc1cc2cc(C(=O)N3CC(CCl)c4c3cc(N(C)C)c3ccccc43)[nH]c2c(OC)c1OC` (stereo not given), the TGI in the assay with BT-549 breast was 5.91 µM; with SK-MEL-2 melanoma, under 0.01 µM; with RXF 393 renal, 0.0334 µM; in the assay with SF-268 CNS, 0.016 µM; with OVCAR-3 ovarian, 0.0377 µM; in the assay on HOP-92 NSCLC, over 53.9 µM. The TGI in the assay on SK-OV-3 ovarian was found to be 0.0395 µM; in the assay with SK-MEL-5 melanoma it was 0.0241 µM; with HCC-2998 colon it was 0.0809 µM.
In the case of `NC(Cc1c[nH]c2ccccc12)C(=O)O` (stereo not given), the concentration for total growth inhibition (TGI) in the assay with A549 NSCLC, with SK-MEL-2 melanoma, with RXF 393 renal, in the assay on SF-268 CNS, in the assay on NCI-H460 lung and in the assay on OVCAR-3 ovarian was over 300 µM throughout. Moreover, the TGI with HOP-92 NSCLC, with SK-OV-3 ovarian, in the assay on NCI/ADR-RES ovarian, in the assay on SK-MEL-5 melanoma and with HCC-2998 colon was over 300 µM in each case.
On to `CC12CC3(O)OC(O1)C1(COC(=O)c4ccccc4)C3CC21OC1OC(CO)C(O)C(O)C1O` (stereo not given), for which the TGI in the assay on A549 NSCLC, with BT-549 breast, with SK-MEL-2 melanoma, in the assay with RXF 393 renal, in the assay on SF-268 CNS and in the assay with NCI-H460 lung was over 100 µM each time. Further, the TGI in the assay on OVCAR-3 ovarian, in the assay with HOP-92 NSCLC, in the assay with SK-OV-3 ovarian, in the assay on NCI/ADR-RES ovarian, in the assay on SK-MEL-5 melanoma and with HCC-2998 colon was over 100 µM in each case.
Take `Clc1ccc2c(NCCNc3ccnc4cc(Cl)ccc34)ccnc2c1`: the TGI with A549 NSCLC was 35.6 µM; in the assay on BT-549 breast, 36.8 µM; in the assay with SK-MEL-2 melanoma, 34.4 µM; with RXF 393 renal, 36.1 µM; with SF-268 CNS, 70.6 µM; with NCI-H460 lung it was 27 µM. Besides, the TGI was 28.3 µM in the assay on OVCAR-3 ovarian; 38.5 µM with HOP-92 NSCLC; 31.5 µM in the assay with SK-OV-3 ovarian; over 100 µM in the assay with NCI/ADR-RES ovarian; 38.1 µM with SK-MEL-5 melanoma; 28.5 µM in the assay with HCC-2998 colon.
`CC[C@@]1(O)C(=O)OCc2c1cc1n(c2=O)Cc2c-1nc1ccccc1c2/C=N\NC(=O)C(N)Cc1cnc[nH]1` (stereo not given in full): the TGI is over 100 µM in the assay on A549 NSCLC; over 100 µM in the assay with BT-549 breast; over 46.5 µM with SK-MEL-2 melanoma; 9.59 µM in the assay with RXF 393 renal; over 25.8 µM with SF-268 CNS; 4.8 µM with NCI-H460 lung. Besides, the TGI is over 51.4 µM in the assay with OVCAR-3 ovarian; over 41.5 µM in the assay on HOP-92 NSCLC; over 100 µM with SK-OV-3 ovarian; 1.03 µM in the assay on SK-MEL-5 melanoma; over 67.5 µM with HCC-2998 colon.
What is called GI50 is the concentration giving 50% growth inhibition. Turning to `COc1cc(/C=C2\CN(S(=O)(=O)c3ccc(C)cc3)C/C(=C\c3cc(CN4CCCCC4)c(O)c(OC)c3)C2=O)cc(CN2CCCCC2)c1O`, the GI50 in the assay with BT-549 breast is 1.38 µM; in the assay with OVCAR-3 ovarian, 1.85 µM; with HOP-92 NSCLC it was 1.55 µM; with SK-OV-3 ovarian, 1.91 µM; with NCI/ADR-RES ovarian, 1.22 µM; with SK-MEL-5 melanoma, 1.81 µM. Moreover, the GI50 in the assay with HCC-2998 colon is 1.78 µM. Also, the TGI is 2.77 µM with BT-549 breast; 3.59 µM in the assay on OVCAR-3 ovarian; 3.19 µM in the assay on HOP-92 NSCLC; 3.6 µM with SK-OV-3 ovarian; 3.77 µM in the assay with NCI/ADR-RES ovarian; 3.47 µM in the assay on SK-MEL-5 melanoma. Further, in the assay on HCC-2998 colon, the TGI was found to be 3.37 µM.
